Results: US12109187B2, “Antimicrobial compositions and related methods” (priority 2020, dated 2024)
Entries after “also recorded” stand apart in the source; their conditions may differ.

Tests used:
[1] = system: F. tularensis live vaccine strain (LVS); assay: microbe, parasite or virus in culture; format: cell-based, Francisella tularensis
TNFα = format: cell-based
F. tularensis LVS = format: cell-based, Francisella tularensis
LpnA = format: cell-based, Francisella tularensis LVS
IglA = format: cell-based, Francisella tularensis LVS
MglA/SspA regulon = format: cell-based, Francisella tularensis LVS
Acinetobacter baumannii = system: Acinetobacter baumannii; design: species or system Galleria mellonella; settings: in vivo
F. tularensis LVS/pTC3D = format: cell-based, Francisella tularensis
IglC = format: cell-based, Francisella tularensis LVS
A. baumannii = format: cell-based, Acinetobacter baumannii

With `C=CCc1cc2c(c(OC)c1OC)OCO2` [dillapiole] the “intracellular replication of F. tularensis LVS in THP-1 monocytes (CFU)” value [1] was “sufficient to inhibit replication of F. tularensis”, the MIC ([1]; Francisella tularensis, read-out: minimum inhibitory concentration (MIC)) was < 7 µg/mL and the “toxicity to mammalian cells” value (mammalian cells) was “not toxic to mammalian cells”. The TNFα production (TNFα) was “decreased TNFα production”, the “bacterial growth as determined by optical density” value (F. tularensis LVS) was “did not affect bacterial growth” and the LpnA production (LpnA) was “unaffected”. The IglA protein expression (IglA) was “significant reduction”, the “expression of virulence factors / genes controlled by MglA/SspA (incl. FPI genes)” value (MglA/SspA regulon) was “decrease in expression of several key virulence factors; also recorded: significantly decreased expression following treatment with dillapiole” and the “rate of survival of infected wax worms” value (Acinetobacter baumannii) was “significantly higher rate of survival”. The “replication of F. tularensis in RAW 264.7 mouse macrophages” value (F. tularensis LVS/pTC3D) was “sufficient to inhibit replication of F. tularensis”, the IglC protein expression (IglC) was “significant reduction” and the “A. baumannii viability in rich growth media” value (A. baumannii) was “did not diminish A. baumannii viability”.
